Laboratory results published in patent US20250129088A1, “CEREBLON E3 UBIQUITIN LIGASE INHIBITOR” (Gan & Lee Pharmaceuticals Co., Ltd., priority 2022, published 2025).

How the values were obtained:
Format in all cases: cell-based
T-47D cells = test: T-47D cell proliferation inhibition, CCK-8; details: Homo sapiens, T47D, 144 h, 6 days
Protocol: The complete medium required for T-47D cells is 1640 (ATCC, Product number: A10491-01) basal medium containing 10% fetal bovine serum. T-47D cells were seeded in a 96-well plate at a density of 3,000/well, and different concentrations of the compound of the present invention and the positive control sample ARV-471 (source: Innochem) were prepared to treat the cells. The cells were incubated at 37° C., 5% for 6 days in a CO2 cell incubator. Cell viability was detected using the CCK-8 kit (Beyotime, Product number: C0040) according to the manufacturer's instructions. According to the inhibition rate, the GraphPadPrism software was used to calculate the IC50 value of each compound for 6 days, and the results are shown in Table 17.

MCF-7 cells = test: MCF-7 cell proliferation inhibition, CCK-8; details: Homo sapiens, MCF7, 216 h, MCF-7, 9 days
Protocol: The complete medium required for MCF-7 cells is DMEM (gibco, Product number: 11995-065) basal medium containing 10% fetal bovine serum. MCF-7 cells were seeded in a 96-well plate at a density of 800/well, and different concentrations of the compound of the present invention and the positive control sample ARV-471 (source: Enochem) were prepared to treat the cells. The cells were incubated at 37° C., 5% 9 days in a CO2 cell incubator. Cell viability was detected using the CCK-8 kit (Beyotime, Product number: C0040) according to the manufacturer's instructions. According to the inhibition rate, GraphPadPrism software was used to calculate the IC50 value of each compound for 9 days, and the results are shown in Table 18.

A549 cells = test: A549 cell proliferation inhibition, CCK-8; details: Homo sapiens, 96 h, A549, 4 days
Protocol: The complete medium required for A549 cells is F-12K (ATCC, Product number: 30-2004) basal medium containing 10% fetal bovine serum. A549 cells were seeded in a 96-well plate at a density of 2,800 cells/well, and the next day, different concentrations of the compound of the present invention and a positive control sample Ceritinib (source: Bide Pharmaceuticals) were prepared to treat the cells. The cells were incubated at 37° C., 5% CO2 cell incubator for 4 days. Cell viability was detected using the CCK-8 kit (Beyotime, Product number: C0040) according to the manufacturer's instructions. According to the inhibition rate, the GraphPad Prism software was used to calculate the IC50 value of each compound for 4 days, and the results are shown in Table 3.

HeLa cells = test: HeLa cell proliferation inhibition, CCK-8; details: Homo sapiens, 72 h, 3 days
Protocol: The complete medium required for HeLa cells is DMEM high glucose (Gibco, Product number: 11995-065) basal medium containing 10% fetal bovine serum. HeLa cells were seeded in a 96-well plate at a density of 4,000 cells/well, and the next day, different concentrations of the compound of the present invention and the positive control sample Ceritinib (source: Bide Pharmaceuticals) were prepared to treat the cells. The cells were incubated at 37° C., 5% CO2 cell culture incubator for 3 days. Cell viability was detected using the CCK-8 kit (Beyotime, Product number: C0040) according to the manufacturer's instructions. According to the inhibition rate, GraphPad Prism software was used to calculate the IC50 value of each compound for 3 days, and the results are shown in Table 2.

K562 cells = test: K562 cell proliferation inhibition, CCK-8; details: Homo sapiens, 96 h, K562, 4 days, Table 12, positive control dBET6
Protocol: The complete medium required for K562 cells is IMDM (ATCC, Product number: 30-2005) basal medium containing 10% fetal bovine serum. K562 cells were seeded in a 96-well plate at a density of 7,500 cells/well, and different concentrations of the compound of the present invention and positive control samples Alisertib (source: Bide Pharmaceuticals) and dBET6 (source: Bide Pharmaceuticals) were prepared to treat the cells. The cells were incubated at a 37° C., 5% CO2 cell culture incubator for 4 days.
Cell viability was detected using the CCK-8 kit (Beyotime, Product number: C0040) according to the manufacturer's instructions. According to the inhibition rate, GraphPad Prism software was used to calculate the IC50 value of each compound for 4 days, and the results are shown in Table 11-12.

MOLM-13 cells = test: MOLM-13 cell proliferation inhibition, CCK-8; details: Homo sapiens, 96 h, MOLM-13, 4 days, Table 9
Protocol: The complete medium required for MOLM-13 cells is 1640 (ATCC, Product number: 30-2001) basal medium containing 20% fetal bovine serum. MOLM-13 cells were seeded in a 96-well plate at a density of 7,500 cells/well, and different concentrations of the compounds of the present invention were prepared to treat the cells at the same time. The cells were incubated in a 37° C., 5% CO2 cell culture incubator for 4 days. Cell viability was detected using the CCK-8 kit (Beyotime, Product number: C0040) according to the manufacturer's instructions. According to the inhibition rate, GraphPad Prism software was used to calculate the IC50 value of each compound for 4 days, and the results are shown in Table 9-10.

SMILES	IC50 (A549 cells)	IC50 (HeLa cells)	other results
O=C1CCC(N2Cc3cc4c(cc3C2=O)CCC2(CN(C3CCC5(CC3)CN(c3ccc([C@@H]6c7ccc(O)cc7CC[C@@H]6c6ccccc6)cc3)C5)C2)O4)C(=O)N1 (stereo partly drawn) [PROTAC 55, 3-(1-(2-(4-((1R,2S)-6-hydroxy-2-phenyl-1,2,3,4-tetrahydronaphthalen-1-yl)phenyl)-2-azaspiro [3.5]non-7-yl)-6′-oxo-3′,4′,6′,8′-tetrahydro-7′H-spiro[azetidine-3,2′-pyrano[2,3-f]isoindol]-7′-yl)piperidine-2,6-dione]	–	–	IC50 (T-47D cells): 0.0066 µM; IC50 (MCF-7 cells): 0.04 µM
Cc1cc(Nc2ncc(Cl)c(Nc3ccccc3S(=O)(=O)C(C)C)n2)c(OC(C)C)cc1C1CCNCC1 [Ceritinib, reference compound]	4.31 µM	5.99 µM	–
O=C1CCC(N2C(=O)c3cc4c(cc3C2=O)C2(CCN(C3CCC5(CC3)CCN(c3ccc([C@@H]6c7ccc(O)cc7CC[C@@H]6c6ccccc6)cc3)CC5)CC2)CO4)C(=O)N1 (stereo partly drawn) [PROTAC 54, 6-(2,6-dioxopiperidin-3-yl)-1′-(3-(4-((1R,2S)-6-hydroxy-2-phenyl-1,2,3,4-tetralin-1-yl)phenyl)-3-azaspiro[5.5]undec-9-yl)-6-hydrogen-2H,5H-spiro[furo[2,3-f]isoindole-3,4′-piperidine]-5,7-dione]	–	–	IC50 (T-47D cells): 0.068 µM; IC50 (MCF-7 cells): 0.17 µM
Cc1cc(Nc2ncc(Cl)c(Nc3ccccc3S(=O)(=O)C(C)C)n2)c(OC(C)C)cc1C1CCN(CCOCCC(=O)N2CC3(CCc4cc5c(cc4O3)CN(C3CCC(=O)NC3=O)C5=O)C2)CC1 (stereo not drawn) [PROTAC 27, 3-(1-(3-(2-(4-(4-((5-chloro-4-((2-(isopropylsulfonyl)phenyl)amino)pyrimidin-2-yl)amino)-5-isopropoxy-2-methylphenyl)piperidin-1-yl)ethoxy)propionyl)-6′-oxo-3′,4′,6′,8′-tetrahydro-7′H-spiro[azetidine-3,2′-pyrano[2,3-f]isoindole]-7′-yl)piperidine-2,6-dione]	11.4 µM	4.27 µM	–
Cc1cc(Nc2ncc(Cl)c(Nc3ccccc3S(=O)(=O)C(C)C)n2)c(OC(C)C)cc1C1CCN(CCOCCC(=O)N2CC3(CCc4cc5c(cc4O3)C(=O)N(C3CCC(=O)NC3=O)C5)C2)CC1 (stereo not drawn) [PROTAC 28, 3-(1-(3-(2-(4-(4-((5-chloro-4-((2-(isopropylsulfonyl)phenyl)amino)pyrimidin-2-yl)amino)-5-isopropoxy-2-methylphenyl)piperidin-1-yl)ethoxy)propionyl)-8′-oxo-3′,4′,6′,8′-tetrahydro-7′H-spiro[azetidine-3,2′-pyrano[2,3-f]isoindole]-7′-yl)piperidine-2,6-dione]	6.81 µM	4.36 µM	–
O=C1CCC(N2Cc3ccc4c(c3C2=O)OCC2(CCN(C3CCC5(CC3)CCN(c3ccc([C@@H]6c7ccc(O)cc7CC[C@@H]6c6ccccc6)cc3)CC5)CC2)C4)C(=O)N1 (stereo partly drawn) [PROTAC 59, 3-(1-(3-(4-((1R,2S)-6-hydroxy-2-phenyl-1,2,3,4-tetrahydronaphthalen-1-yl)phenyl)-3-azaspiro[5.5]undec-9-yl)-9′-oxo-7′,9′-dihydro-2′H-spiro[piperidin-4,3′-pyrano[2,3-f]isoindole]-8′(4′H)-yl)piperidine-2,6-dione]	–	–	IC50 (T-47D cells): 0.0052 µM; IC50 (MCF-7 cells): 0.13 µM
Cc1cc(Nc2ncc(Cl)c(Nc3ccccc3S(=O)(=O)C(C)C)n2)c(OC(C)C)cc1C1CCN(CCOCCC(=O)N2CCC3(CCc4cc5c(cc4O3)C(=O)N(C3CCC(=O)NC3=O)C5=O)CC2)CC1 (stereo not drawn) [PROTAC 29, 1-(3-(2-(4-(4-((5-chloro-4-((2-(isopropylsulfonyl)phenyl)amino)pyrimidin-2-yl)amino)-5-isopropoxy-2-methylphenyl)piperidin-1-yl)ethoxy)propionyl)-7′-(2,6-dioxopiperidin-3-yl)-3′,4′-dihydro-6′H-spiro[piperidine-4,2′-pyrano[2,3-f]isoindole]-6′,8′(7′H)-dione]	4.34 µM	5.41 µM	–
Cc1cc(Nc2ncc(Cl)c(Nc3ccccc3S(=O)(=O)C(C)C)n2)c(OC(C)C)cc1C1CCN(CCOCCC(=O)N2CCC3(CC2)COc2cc4c(cc2C3)C(=O)N(C2CCC(=O)NC2=O)C4=O)CC1 (stereo not drawn) [PROTAC 30, 1-(3-(2-(4-(4-((5-chloro-4-((2-(isopropylsulfonyl)phenyl)amino)pyrimidin-2-yl)amino)-5-isopropoxy-2-methylphenyl)piperidin-1-yl)ethoxy)propionyl)-7′-(2,6-dioxopiperidin-3-yl)-2′H-spiro[piperidine-4,3′-pyrano[2,3-f]isoindole]-6′,8′(4′H,7′H)-dione]	4.38 µM	3.09 µM	–
Cc1cc(Nc2ncc(Cl)c(Nc3ccccc3S(=O)(=O)C(C)C)n2)c(OC(C)C)cc1C1CCN(CCOCCC(=O)N2CCC3(CC2)COc2cc4c(cc23)C(=O)N(C2CCC(=O)NC2=O)C4=O)CC1 (stereo not drawn) [PROTAC 31, 1′-(3-(2-(4-(4-((5-chloro-4-((2-(isopropylsulfonyl)phenyl)amino)pyrimidin-2-yl)amino)-5-isopropoxy-2-methylphenyl)piperidin-1-yl)ethoxy)propionyl)-6-(2,6-dioxopiperidin-3-yl)-6-hydrogen-2H,5H-spiro[furo[2,3-f]isoindole-3,4′-piperidine]-5,7-dione]	10.2 µM	4.65 µM	–
Cc1nc(Nc2ncc(C(=O)Nc3c(C)cccc3Cl)s2)cc(N2CCN(CCOCCC(=O)N3CCC4(CCc5cc6c(cc5O4)C(=O)N(C4CCC(=O)NC4=O)C6=O)CC3)CC2)n1 (stereo not drawn) [PROTAC 9, N-(2-chloro-6-methylphenyl)-2-((6-(4-(2-(3-(7′-(2,6-dioxopiperidin-3-yl)-6′,8′-dioxo-4′,6′,7′,8′-tetrahydro-3′H-spiro[piperidine-4,2′-pyrano[2,3-f]isoindol]-1-yl)-3-oxopropoxy)ethyl)piperazin-1-yl)-2-methylpyrimidin-4-yl)amino)thiazole-5-carboxamide]	–	–	IC50 (K562 cells): 0.016 µM; IC50 (MOLM-13 cells): 1.11 µM
Cc1cc(Nc2ncc(Cl)c(Nc3ccccc3S(=O)(=O)C(C)C)n2)c(OC(C)C)cc1C1CCN(CCOCCC(=O)N2CCC3(CCc4cc5c(cc4O3)CN(C3CCC(=O)NC3=O)C5=O)CC2)CC1 (stereo not drawn) [PROTAC 25]	7.02 µM	2.19 µM	–
Cc1cc(Nc2ncc(Cl)c(Nc3ccccc3S(=O)(=O)C(C)C)n2)c(OC(C)C)cc1C1CCN(CCOCCC(=O)N2CCC3(CCc4cc5c(cc4O3)C(=O)N(C3CCC(=O)NC3=O)C5)CC2)CC1 (stereo not drawn) [PROTAC 26, 3-(1-(3-(2-(4-(4-((5-chloro-4-((2-(isopropylsulfonyl)phenyl)amino)pyrimidin-2-yl)amino)-5-isopropoxy-2-methylphenyl)piperidin-1-yl)ethoxy)propionyl)-8′-oxo-3′,4′,6′,8′-tetrahydro-7′H-spiro[piperidine-4,2′-pyrano[2,3-f]isoindole]-7′-yl)piperidine-2,6-dione]	4.27 µM	4.33 µM	–
